{"source": "BindingDB's records for doi:10.1073/pnas.92.19.8734", "about": "(Massachusetts General Hospital, 1995)", "key": {"[1]": {"biological_target": "Melatonin receptor type 1A (Homo sapiens, UniProt P48039)", "sequence (P48039 whole entry)": "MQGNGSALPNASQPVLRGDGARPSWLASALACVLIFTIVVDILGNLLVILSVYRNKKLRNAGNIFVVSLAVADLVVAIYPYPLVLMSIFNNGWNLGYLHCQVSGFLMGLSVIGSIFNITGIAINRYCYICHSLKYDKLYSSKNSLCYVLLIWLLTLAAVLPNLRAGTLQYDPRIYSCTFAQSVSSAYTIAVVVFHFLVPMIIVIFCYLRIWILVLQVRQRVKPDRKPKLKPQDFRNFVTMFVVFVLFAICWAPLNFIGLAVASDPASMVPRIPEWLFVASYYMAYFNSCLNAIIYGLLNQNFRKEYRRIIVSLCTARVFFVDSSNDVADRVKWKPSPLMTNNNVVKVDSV"}, "[2]": {"biological_target": "T1, Melatonin receptor type 1B (Homo sapiens, UniProt P49286)", "T1 sequence (P49286 whole entry)": "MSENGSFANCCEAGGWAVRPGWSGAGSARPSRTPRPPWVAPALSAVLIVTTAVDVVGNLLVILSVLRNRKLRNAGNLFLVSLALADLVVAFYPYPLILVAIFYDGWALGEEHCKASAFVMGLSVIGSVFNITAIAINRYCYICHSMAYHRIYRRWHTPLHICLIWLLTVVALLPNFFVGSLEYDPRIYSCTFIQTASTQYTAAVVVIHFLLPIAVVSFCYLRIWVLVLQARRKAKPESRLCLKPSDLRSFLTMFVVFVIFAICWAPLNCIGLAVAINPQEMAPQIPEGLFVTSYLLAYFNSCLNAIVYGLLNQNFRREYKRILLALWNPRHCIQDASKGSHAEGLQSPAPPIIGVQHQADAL"}}, "data": [{"compound": "CC(=O)n1cc(CCN)c2cc(O)ccc21", "note": "[NSC_260803]", "values": [{"measurement": "Ki", "setting": "[1]", "value": 986, "unit": "nM"}, {"measurement": "Ki", "setting": "[2]", "value": 595, "unit": "nM"}]}, {"compound": "NCCc1c[nH]c2ccc(O)cc12", "note": "[[3H]-5-HT]", "values": [{"measurement": "Ki", "setting": "[2]", "value": "> 10000", "unit": "nM"}]}, {"compound": "COc1cc2nc(N3CCN(C(=O)c4ccco4)CC3)nc(N)c2cc1OC", "note": "[[3H]-Minipress]", "values": [{"measurement": "Ki", "setting": "[1]", "value": "> 10000", "unit": "nM"}, {"measurement": "Ki", "setting": "[2]", "value": "> 10000", "unit": "nM"}]}]}
